How the values were obtained:
SW-620 = experiment: Growth inhibition of human SW620 cells assessed as cell growth at 100 uM incubated for 48 hrs by sulforhodamine B assay relative to control; format: functional; details: SW-620, 48 h, read-out: Activity
786-0 [1] = experiment: Growth inhibition of human 786-0 cells assessed as cell growth at 100 uM incubated for 48 hrs by sulforhodamine B assay relative to control; format: functional; details: 786-0, 48 h, read-out: Activity
786-0 [2] = experiment: Growth inhibition of human 786-0 cells assessed as cell growth at 1 uM incubated for 48 hrs by sulforhodamine B assay relative to control; format: functional; details: 786-0, 48 h, read-out: Activity
NCI-H522 = experiment: Growth inhibition of human NCI-H522 cells incubated for 48 hrs by sulforhodamine B assay; format: functional, cell-based; details: NCI-H522, 48 h
COLO 205 = experiment: Growth inhibition of human COLO205 cells assessed as cell growth at 100 uM incubated for 48 hrs by sulforhodamine B assay relative to control; format: functional; details: COLO 205, 48 h, read-out: Activity
SF-295 = experiment: Growth inhibition of human SF295 cells assessed as cell growth at 0.1 uM incubated for 48 hrs by sulforhodamine B assay relative to control; format: functional; details: SF-295, 48 h, read-out: Activity
HCC 2998 [3] = experiment: Growth inhibition of human HCC2998 cells incubated for 48 hrs by sulforhodamine B assay; format: functional, cell-based; details: HCC 2998, 48 h
ACHN = experiment: Growth inhibition of human ACHN cells assessed as cell growth at 100 uM incubated for 48 hrs by sulforhodamine B assay relative to control; format: functional; details: read-out: Activity
HT-29 [4] = experiment: Growth inhibition of human HT-29 cells assessed as cell growth at 100 uM incubated for 48 hrs by sulforhodamine B assay relative to control; format: functional; details: HT-29, 48 h, read-out: Activity
HCT-15 = experiment: Growth inhibition of human HCT15 cells incubated for 48 hrs by sulforhodamine B assay; format: functional, cell-based; details: HCT-15, 48 h
NCI/ADR-RES = experiment: Growth inhibition of human NCI/ADR-RES cells assessed as cell growth at 100 uM incubated for 48 hrs by sulforhodamine B assay relative to control; format: functional; details: read-out: Activity
HT-29 [5] = experiment: Growth inhibition of human HT-29 cells assessed as cell growth at 10 uM incubated for 48 hrs by sulforhodamine B assay relative to control; format: functional; details: HT-29, 48 h, read-out: Activity
786-0 [6] = experiment: Growth inhibition of human 786-0 cells assessed as cell growth at 0.01 uM incubated for 48 hrs by sulforhodamine B assay relative to control; format: functional; details: 786-0, 48 h, read-out: Activity
SK-MEL-5 = experiment: Growth inhibition of human SK-MEL-5 cells assessed as cell growth at 1 uM incubated for 48 hrs by sulforhodamine B assay relative to control; format: functional; details: SK-MEL-5, 48 h, read-out: Activity
HCC 2998 [7] = experiment: Growth inhibition of human HCC2998 cells assessed as cell growth at 0.1 uM incubated for 48 hrs by sulforhodamine B assay relative to control; format: functional; details: HCC 2998, 48 h, read-out: Activity
SK-OV-3 = experiment: Growth inhibition of human SKOV3 cells assessed as cell growth at 0.1 uM incubated for 48 hrs by sulforhodamine B assay relative to control; format: functional; details: SK-OV-3, 48 h, read-out: Activity
A498 = experiment: Growth inhibition of human A498 cells assessed as cell growth at 0.1 uM incubated for 48 hrs by sulforhodamine B assay relative to control; format: functional; details: A498, 48 h, read-out: Activity
UACC-62 = experiment: Growth inhibition of human UACC62 cells incubated for 48 hrs by sulforhodamine B assay; format: functional, cell-based; details: UACC-62, 48 h
NCI-H23 = experiment: Growth inhibition of human NCI-H23 cells assessed as cell growth at 0.1 uM incubated for 48 hrs by sulforhodamine B assay relative to control; format: functional; details: NCI-H23, 48 h, read-out: Activity
PC-3 = experiment: Growth inhibition of human PC3 cells assessed as cell growth at 100 uM incubated for 48 hrs by sulforhodamine B assay relative to control; format: functional; details: PC-3, 48 h, read-out: Activity
RPMI-8226 = experiment: Growth inhibition of human RPMI8226 cells incubated for 48 hrs by sulforhodamine B assay; format: functional, cell-based; details: RPMI-8226, 48 h
LOX IMVI = experiment: Growth inhibition of human LOXIMVI cells assessed as cell growth at 0.1 uM incubated for 48 hrs by sulforhodamine B assay relative to control; format: functional; details: read-out: Activity
SF-268 = experiment: Growth inhibition of human SF268 cells incubated for 48 hrs by sulforhodamine B assay; format: functional, cell-based; details: SF-268, 48 h
Malme-3M = experiment: Growth inhibition of human MALME-3M cells assessed as cell growth at 1 uM incubated for 48 hrs by sulforhodamine B assay relative to control; format: functional; details: read-out: Activity
UACC-257 = experiment: Growth inhibition of human UACC257 cells assessed as cell growth at 100 uM incubated for 48 hrs by sulforhodamine B assay relative to control; format: functional; details: UACC-257, 48 h, read-out: Activity
SN12C = experiment: Growth inhibition of human SN12C cells incubated for 48 hrs by sulforhodamine B assay; format: functional, cell-based
SNB-75 = experiment: Growth inhibition of human SNB75 cells assessed as cell growth at 0.01 uM incubated for 48 hrs by sulforhodamine B assay relative to control; format: functional; details: SNB-75, 48 h, read-out: Activity
U-251 = experiment: Growth inhibition of human U251 cells incubated for 48 hrs by sulforhodamine B assay; format: functional, cell-based; details: U-251, 48 h
[8] = read-out: LC50 (the source's name)
[9] = read-out: pLC50 (the source's name) (converted)

In the case of `O=C(Nc1cccc(-n2cc(-c3ccncc3)c(-c3cc(O)cc(Cl)c3)n2)c1)c1cc(C(F)(F)F)cc(C(F)(F)F)c1`, the growth at 100 µM (SW-620) is reported as 13%, the growth at 100 µM (786-0 [1]) is reported as -28% and the growth at 1 µM (786-0 [2]) is reported as 56%. For the same molecule, the GI50 (NCI-H522; read-out: GI50) was 1.5 µM, the CC50 (NCI-H522; [8]) was over 100 µM and the TGI (NCI-H522; read-out: TGI) was 83.7 µM. For the same molecule, the GI50 (NCI-H522; read-out: pGI50 (converted)) was 1.58 µM, the CC50 (NCI-H522; [9]) was over 100 µM and the TGI (NCI-H522; read-out: pTGI (converted)) was 8.32 µM. It also gave a growth at 100 µM (COLO 205) of -7%, a growth at 0.1 µM (SF-295) of 89% and a GI50 (HCC 2998 [3]; read-out: GI50) of 3.12 µM. The CC50 (HCC 2998 [3]; [8]) was over 100 µM, the TGI (HCC 2998 [3]; read-out: TGI) was 11.6 µM and the GI50 (HCC 2998 [3]; read-out: pGI50 (converted)) was 3.09 µM. For the same molecule, the CC50 (HCC 2998 [3]; [9]) was over 100 µM, the TGI (HCC 2998 [3]; read-out: pTGI (converted)) was 11.7 µM and the growth at 100 µM (ACHN) was 19%. For the same molecule, the growth at 100 µM (HT-29 [4]) was -5%, the GI50 (HCT-15; read-out: GI50) was 2.5 µM and the CC50 (HCT-15; [8]) was over 100 µM. For the same molecule, the TGI (HCT-15; read-out: TGI) was 14.7 µM, the GI50 (HCT-15; read-out: pGI50 (converted)) was 2.57 µM and the CC50 (HCT-15; [9]) was over 100 µM. The TGI (HCT-15; read-out: pTGI (converted)) was 14.8 µM, the growth at 100 µM (NCI/ADR-RES) was 9% and the growth at 10 µM (HT-29 [5]) was 19.7%. For the same molecule, the growth at 0.01 µM (786-0 [6]) was 94%, the growth at 1 µM (SK-MEL-5) was 90% and the growth at 0.1 µM (HCC 2998 [7]) was 95%. It also gave a growth at 0.1 µM (SK-OV-3) of 98%, a growth at 0.1 µM (A498) of 87% and an IC50 (UACC-62) of 3.79 µM. For the same molecule, the GI50 (UACC-62; read-out: GI50) was 3.79 µM, the CC50 (UACC-62; [8]) was over 100 µM and the TGI (UACC-62; read-out: TGI) was 22.4 µM. For the same molecule, the GI50 (UACC-62; read-out: pGI50 (converted)) was 3.8 µM, the CC50 (UACC-62; [9]) was over 100 µM and the TGI (UACC-62; read-out: pTGI (converted)) was 28.2 µM. It also gave a growth at 0.1 µM (NCI-H23) of 95%, a growth at 100 µM (PC-3) of -8% and an IC50 (RPMI-8226) of 2.5 µM. It also gave a GI50 (RPMI-8226; read-out: GI50) of 2.5 µM, a CC50 (RPMI-8226; [8]) of over 100 µM and a TGI (RPMI-8226; read-out: TGI) of 12.7 µM. The GI50 (RPMI-8226; read-out: pGI50 (converted)) was 2.51 µM, the CC50 (RPMI-8226; [9]) was over 100 µM and the TGI (RPMI-8226; read-out: pTGI (converted)) was 12.6 µM. For the same molecule, the growth at 0.1 µM (LOX IMVI) was 102%, the GI50 (SF-268; read-out: GI50) was 6.38 µM and the CC50 (SF-268; [8]) was over 100 µM. It also gave a TGI (SF-268; read-out: TGI) of over 100 µM, a GI50 (SF-268; read-out: pGI50 (converted)) of 6.46 µM and a CC50 (SF-268; [9]) of over 100 µM. The TGI (SF-268; read-out: pTGI (converted)) was over 100 µM, the growth at 1 µM (Malme-3M) was 59% and the growth at 100 µM (UACC-257) was -10%. For the same molecule, the GI50 (SN12C; read-out: GI50) was 4.77 µM, the LC50 (SN12C; read-out: LC50) was over 100 µM and the TGI (SN12C; read-out: TGI) was over 100 µM. It also gave a GI50 (SN12C; read-out: pGI50 (converted)) of 4.79 µM, an LC50 (SN12C; read-out: pLC50 (converted)) of over 100 µM and a TGI (SN12C; read-out: pTGI (converted)) of over 100 µM. For the same molecule, the growth at 0.01 µM (SNB-75) was 58%, the IC50 (U-251) was 3.23 µM and the GI50 (U-251; read-out: GI50) was 3.23 µM. It also gave a CC50 (U-251; [8]) of over 100 µM, a TGI (U-251; read-out: TGI) of 24.4 µM and a GI50 (U-251; read-out: pGI50 (converted)) of 3.24 µM. The CC50 (U-251; [9]) was over 100 µM and the TGI (U-251; read-out: pTGI (converted)) was 30.9 µM.

— ChEMBL document CHEMBL4308841, “Synthesis, in vitro antiproliferative activity, and kinase inhibitory effects of pyrazole-containing diarylureas and diarylamides” (Eur J Med Chem, 2018)
